From patent US10363229B2, “Methods and compositions for the treatment of cancer” (priority 2009, dated 2019)

Columns and labels:
[1] = tested on: Cloudman S-91 mouse melanoma cells (sub-clone M-3); assay: Annexin V-FITC/propidium iodide apoptosis assay in melanoma cells; format: cell-based
Protocol: (§1) Cloudman S-91 mouse melanoma cells (sub-clone M-3, CCL 53.1; American Type Culture Collection, Rockville, Md.) were grown in RMPI medium supplemented with 10% fetal bovine serum (Invitrogen, Inc) and 5% penicillin-streptomycin (Invitrogen, Inc). Mouse breast cancer cells (66Cl-1; American Type Culture Collection, Rockville, Md.) that are estrogen-receptor negative were grown in DMEM medium supplemented with 10% fetal bovine serum (Invitrogen, Inc) and 5% penicillin/streptomycin (Invitrogen, Inc). Human T-cell leukemic lymphocytes (CEM; American Type Culture Collection, Rockville, Md.) were grown in MEM medium supplemented with 7% fetal calf serum. Cultures were passaged twice a week.
Early and late apoptosis was assessed with the Annexin V-FITC Apoptosis Detection Kit from PharMingen (Becton-Dickinson, San Diego, Calif.). Images were obtained at the Center for Cell Analysis and Modeling, University of Connecticut Health Center, Farmington, Conn., with an Axioplan CCD Microscope equipped with a 40×1.3 NA FL objective lens and Photometrics PXL-EEV37 high speed digital cooled CCD camera via Metamorph image acquisition and analysis software (Universal Imaging Corp., Downington, Pa.).
(§2) M3 Cloudman melanoma cells were plated into culture dishes containing RPMI medium. After 24 hour media was changed to control medium (no drug) or to media containing different concentrations of methyl sulfone (1-10% methyl sulfone in RPMI medium). Cells were examined by live cell video microscopy immediately after adding drug and every 24 hours up to 144 hours.
Briefly, melanoma cells (Cloudman M3 cell line) were plated at 10^5 cells/ml in RPMI medium. After 24 hours, medium was replaced with RPMI containing different concentrations (grams/volume) of MMS, MES and EES. After 24 hours, apoptosis was assayed using the Becton-Dickinson Annexin V-FITC/Propidium Iodide Kit and a Nikon fluorescent microscope as described by the manufacturer.

[2] = tested on: CEM cells, leukemic T-cell lymphocytes; assay: Apoptosis of leukemic lymphocytes, FITC-annexinV/propidium iodide microscopy; format: cell-based, human; details: 10^−7 M VNB, 20 hours
Protocol: as §1
CEM cells, leukemic T-cell lymphocytes obtained from a child with acute lymphocytic leukemia, were maintained in Petri dishes in MEM (minimal essential medium) with 7% fetal calf serum in a 5% CO2 incubator at 37° C. For experiments, methyl sulfone was added to the medium at concentrations from 0-6.0%. In control cells, no methyl sulfone was added. Cells (2×10^6 per ml) were incubated for 20 hrs in the presence or absence of methyl sulfone, and then assayed for apoptosis using FITC-annexinV/propidium iodide microscopy. Methyl sulfone was also compared to the anti-microtubule drug, vinblastine. Vinblastine (VNB) and its derivative, vincristine, are standard treatments for acute lymphocytic leukemia, as well as other cancers. We used the concentration of VNB that is found in the blood of subjects being treated with this drug (10^−7 M) (6,7).

[3] = tested on: microtubules in melanoma cells; assay: Immunofluorescence of microtubules, incl. vinblastine stability test; format: cell-based, mouse; details: 10^−7 M vinblastine, no methyl sulfone
Protocol: Cells were plated in 6-100 mm tissue culture plates, each containing 1 polylysine-coated 10-well slide, or plated onto polylysine-coated coverslips. Once cells were approximately 50% confluent, 2% methyl sulfone was added to cells for 10, 30, 60, 90, and 120 minutes. At each time point cells were placed in microtubule stabilizing buffer ( ) for 10 minutes followed by incubation in −20° C. methanol for 5 minutes. Cells were washed twice in 0.1% Triton X-100 in PBS at room temperature, then incubated with mouse monoclonal anti-alpha-tubulin antibody (Santa Cruz Biotech, Calif.; diluted 1/200 in 1% BSA/PBS) for 1.5 hours. Cells were washed 5 times in 0.1% Triton X-100/PBS, 3 minutes each. Cells were incubated with secondary antibody (Alexa Fluor 568 rabbit anti-mouse antibody; diluted 1/100 in 1%/PBS) for 30 minutes in the dark. Cells were washed five times in 0.1% Triton X-100/PBS, three minutes each. Cells were washed two times in PBS at 2 minute intervals and incubated with DAPI (1 μg/ml in PBS) for 5 minutes at room temperature and in the dark. Cells were washed in PBS for one minute. SlowFade was added to glass slides, coverslips were placed cell side down and sealed with nail polish. Microtubules were viewed at the Center for Cell Analysis and Modeling, University of Connecticut Health Center, Farmington, Conn., with an Axioplan CCD Microscope equipped with a 40×1.3 NA FL objective lens and Photometrics PXL-EEV37 high speed digital cooled CCD camera via Metamorph image acquisition and analysis software (Universal Imaging Corp., Downington, Pa.).
One assay to test stability of microtubules is to give cells increasing concentrations of a microtubule-disassembly drug and use immunofluorescence microscopy to assess microtubule lengths (Caron et al). A higher concentration of drug will be required to disassemble the more stabilized microtubules. We used different concentrations of the anti-microtubule drug, vinblastine, to assess microtubule stability in control cells and cells incubated with 2% methyl sulfone.

[4] = tested on: M3 Cloudman melanoma cells; assay: Live cell video microscopy of melanoma cells (morphology, contact inhibition); format: cell-based, mouse; details: equimolar concentration substituted for 2% methyl sulfone
Protocol: as §1
Cells were plated on 35 mm tissue culture dishes at concentration of 10^5 cells/plate, unless stated otherwise, and incubated at 37° C., 5% CO2. After 24 hours, methyl sulfone (0-10% in medium) was added to appropriate plates and immediately videotaped with a Nikon TE300 inverted microscope equipped with a 10×0.25 NA Plan Achromat objective lens. Control cells (no drug) were videotaped as described above. Time series (10 min) of phase contrast images were acquired at a video rate of 1 frame/5 s with a Watec-902B CCD video camera (Watec Corp., Japan) via the stream acquisition option of Metamorph image acquisition and analysis software (Universal Imaging Corp., Downington, Pa.). During recordings, cells were kept at 37° C. with 10 mM Hepes, pH 7.4. Time series of cells +/−2% methyl sulfone were obtained every 24-48 hours for up to 6 weeks.
as §2
The possibility that the data generated from treating cells with methyl sulfone was a nonspecific effect due to changes in extracellular osmolarity was considered. To test this possibility an equimolar concentration of urea was substituted for 2% methyl sulfone; urea has a chemical structure and dipolar moment that is similar to methyl sulfone. […] We next replaced 2% methyl sulfone with an equimolar concentration of dimethyl sulfoxide (DMSO).

Structure (SMILES)	window of concentrations between killing cancer cells and harming normal cells [1]	effect on melanoma cells of osmolarity control substance [4]	also measured
CCS(C)(=O)=O [MES, methyl ethyl sulfone, reference compound]	narrow differential	–	–
CC[C@]1(O)C[C@@H]2CN(CCc3c([nH]c4ccccc34)[C@@](C(=O)OC)(c3cc4c(cc3OC)N(C)[C@H]3[C@@](O)(C(=O)OC)[C@H](OC(C)=O)[C@]5(CC)C=CCN6CC[C@]43[C@@H]65)C2)C1 [vinblastine, reference compound]	–	–	apoptotic leukemic cells [2]: 48%; microtubules in control cells [3]: largely gone
C[S+](C)[O-] [DMSO, dimethyl sulfoxide, reference compound]	–	had no effect	–
CCS(=O)(=O)CC [EES, ethyl ethyl sulfone, reference compound]	narrow differential	–	–
NC(N)=O [urea, reference compound]	–	induced necrotic death	–
